Experimental data as given in ChEMBL document CHEMBL1201862, “PubChem BioAssay data set” (2004).
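Protocol summary: plate cells (96-well), add compound at 5 concentrations, incubate 48 h, interpolate endpoints linearly. The concentration for 50% growth inhibition is given as GI50.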 Active and inactive are the calls of the source. No stated cut-off is given here; in the data, active = GI50 up to about 1.1 µM and inactive = higher.

What was measured:
Test in all cases: NCI-60 cell line screen, 48 h
786-0 = test system: 786-0
A498 = test system: A498
A549 = test system: A549
ACHN = test system: ACHN
BT-549 = test system: BT-549
CAKI-1 = test system: CAKI-1
CCRF-CEM = test system: CCRF-CEM
COLO 205 = test system: COLO 205
DU-145 = test system: DU-145
EKVX = test system: EKVX
HCC 2998 = test system: HCC 2998
HCT-116 = test system: HCT-116
HCT-15 = test system: HCT-15
HL-60 = test system: HL-60
HOP-62 = test system: HOP-62
HOP-92 = test system: HOP-92
HT-29 = test system: HT-29
Hs-578T = test system: Hs-578T
IGROV-1 = test system: IGROV-1
K562 = test system: K562
KM12 = test system: KM12
LOX IMVI = test system: LOX IMVI
M14 = test system: M14
MCF7 = test system: MCF7
MDA-MB-231 = test system: MDA-MB-231
MDA-MB-435 = test system: MDA-MB-435
MOLT-4 = test system: MOLT-4
Malme-3M = test system: Malme-3M
NCI-H226 = test system: NCI-H226
NCI-H23 = test system: NCI-H23
NCI-H460 = test system: NCI-H460
NCI-H522 = test system: NCI-H522
NCI/ADR-RES = test system: NCI/ADR-RES
OVCAR-3 = test system: OVCAR-3
OVCAR-4 = test system: OVCAR-4
OVCAR-8 = test system: OVCAR-8
PC-3 = test system: PC-3
RPMI-8226 = test system: RPMI-8226
RXF 393 = test system: RXF 393
SF-268 = test system: SF-268
SF-295 = test system: SF-295
SF-539 = test system: SF-539
SK-MEL-28 = test system: SK-MEL-28
SK-MEL-5 = test system: SK-MEL-5
SK-OV-3 = test system: SK-OV-3
SN12C = test system: SN12C
SNB-19 = test system: SNB-19
SR = test system: SR
SW-620 = test system: SW-620
T47D = test system: T47D
TK-10 = test system: TK-10
UACC-257 = test system: UACC-257
UACC-62 = test system: UACC-62
UO-31 = test system: UO-31
OVCAR-5 = test system: OVCAR-5
SK-MEL-2 = test system: SK-MEL-2
SNB-75 = test system: SNB-75
U-251 = test system: U-251

Q: Which GI50 (786-0) does the source give for `O=C(C(Cl)=C(Nc1ccccc1)Nc1ccccc1)C(Cl)Cl` here?
A: 22.5 µM (inactive)

Q: And the GI50 (A498)?
A: 24.8 µM (inactive)

Q: What about the GI50 (A549) of the same compound?
A: 38.5 µM (inactive)

Q: What about the GI50 (ACHN) of the same compound?
A: 27.5 µM (inactive)

Q: And the GI50 (BT-549)?
A: 37.2 µM (inactive)

Q: What about the GI50 (CAKI-1) of the same compound?
A: 18.8 µM (inactive)

Q: And the GI50 (CCRF-CEM)?
A: 28.5 µM (inactive)

Q: And the GI50 (COLO 205)?
A: 30.6 µM (inactive)

Q: And the GI50 (DU-145)?
A: 51.2 µM (inactive)

Q: What about the GI50 (EKVX) of the same compound?
A: 22.6 µM (inactive)

Q: What about the GI50 (HCC 2998) of the same compound?
A: 19 µM (inactive)

Q: And the GI50 (HCT-116)?
A: 17.3 µM (inactive)

Q: What about the GI50 (HCT-15) of the same compound?
A: 11 µM

Q: And the GI50 (HL-60)?
A: 17.4 µM (inactive)

Q: What about the GI50 (HOP-62) of the same compound?
A: 15.5 µM (inactive)

Q: What about the GI50 (HOP-92) of the same compound?
A: 21.8 µM (inactive)

Q: What about the GI50 (HT-29) of the same compound?
A: 21.2 µM (inactive)

Q: What about the GI50 (Hs-578T) of the same compound?
A: > 100 µM (inactive)

Q: What about the GI50 (IGROV-1) of the same compound?
A: 32.1 µM (inactive)

Q: What about the GI50 (K562) of the same compound?
A: 25.3 µM (inactive)

Q: What about the GI50 (KM12) of the same compound?
A: 39.1 µM (inactive)

Q: What about the GI50 (LOX IMVI) of the same compound?
A: 13.2 µM (inactive)

Q: And the GI50 (M14)?
A: 16.8 µM (inactive)

Q: And the GI50 (MCF7)?
A: 23.9 µM (inactive)

Q: What about the GI50 (MDA-MB-231) of the same compound?
A: 40.5 µM (inactive)

Q: And the GI50 (MDA-MB-435)?
A: 10.6 µM (inactive)

Q: And the GI50 (MOLT-4)?
A: 16 µM (inactive)

Q: What about the GI50 (Malme-3M) of the same compound?
A: 20.3 µM (inactive)

Q: What about the GI50 (NCI-H226) of the same compound?
A: 39.1 µM (inactive)

Q: What about the GI50 (NCI-H23) of the same compound?
A: 41.4 µM (inactive)

Q: What about the GI50 (NCI-H460) of the same compound?
A: 25.1 µM (inactive)

Q: And the GI50 (NCI-H522)?
A: 19.7 µM (inactive)

Q: And the GI50 (NCI/ADR-RES)?
A: 40.6 µM (inactive)

Q: What about the GI50 (OVCAR-3) of the same compound?
A: 23 µM (inactive)

Q: What about the GI50 (OVCAR-4) of the same compound?
A: 36.1 µM (inactive)

Q: What about the GI50 (OVCAR-8) of the same compound?
A: 17.3 µM (inactive)

Q: What about the GI50 (PC-3) of the same compound?
A: 36.9 µM (inactive)

Q: And the GI50 (RPMI-8226)?
A: 29.6 µM (inactive)

Q: What about the GI50 (RXF 393) of the same compound?
A: 14.6 µM (inactive)

Q: What about the GI50 (SF-268) of the same compound?
A: 31.7 µM (inactive)

Q: What about the GI50 (SF-295) of the same compound?
A: 34 µM (inactive)

Q: What about the GI50 (SF-539) of the same compound?
A: 24.6 µM (inactive)

Q: What about the GI50 (SK-MEL-28) of the same compound?
A: 33.2 µM (inactive)

Q: And the GI50 (SK-MEL-5)?
A: 14.9 µM (inactive)

Q: What about the GI50 (SK-OV-3) of the same compound?
A: 37.6 µM (inactive)

Q: What about the GI50 (SN12C) of the same compound?
A: 25.5 µM (inactive)

Q: What about the GI50 (SNB-19) of the same compound?
A: 26.2 µM (inactive)

Q: And the GI50 (SR)?
A: 16.5 µM (inactive)

Q: And the GI50 (SW-620)?
A: 18.8 µM (inactive)

Q: And the GI50 (T47D)?
A: 12.4 µM (inactive)

Q: What about the GI50 (TK-10) of the same compound?
A: 40.3 µM (inactive)

Q: And the GI50 (UACC-257)?
A: 82.8 µM (inactive)

Q: And the GI50 (UACC-62)?
A: 18.6 µM (inactive)

Q: And the GI50 (UO-31)?
A: 33.6 µM (inactive)

Q: Which results are given for `C(/Cc1ccc2c(c1)OCO2)=N\N=C1NCCCCN1`?
A: GI50 (786-0): > 100 µM (inactive); GI50 (A498): 24.8 µM (inactive); GI50 (A549): > 100 µM (inactive); GI50 (ACHN): > 100 µM (inactive); GI50 (BT-549): > 100 µM (inactive); GI50 (CCRF-CEM): 82.2 µM (inactive); GI50 (COLO 205): > 100 µM (inactive); GI50 (DU-145): > 100 µM (inactive); GI50 (EKVX): 50 µM (inactive); GI50 (HCC 2998): 28.2 µM (inactive); GI50 (HCT-116): 64.7 µM (inactive); GI50 (HCT-15): > 100 µM; GI50 (HL-60): > 100 µM (inactive); GI50 (HOP-62): 55.8 µM (inactive); GI50 (HOP-92): 32.8 µM (inactive); GI50 (HT-29): 47.8 µM (inactive); GI50 (Hs-578T): > 100 µM (inactive); GI50 (IGROV-1): 68.9 µM (inactive); GI50 (K562): 41.9 µM (inactive); GI50 (KM12): 88.3 µM (inactive); GI50 (LOX IMVI): 55.5 µM (inactive); GI50 (M14): 16.4 µM (inactive); GI50 (MCF7): 88.3 µM (inactive); GI50 (MDA-MB-231): 76.2 µM (inactive); GI50 (MDA-MB-435): > 100 µM (inactive); GI50 (MOLT-4): 48.4 µM (inactive); GI50 (Malme-3M): > 100 µM (inactive); GI50 (NCI-H226): 49.2 µM (inactive); GI50 (NCI-H23): > 100 µM (inactive); GI50 (NCI-H460): 45.8 µM (inactive); GI50 (NCI-H522): > 100 µM (inactive); GI50 (NCI/ADR-RES): > 100 µM (inactive); GI50 (OVCAR-3): > 100 µM (inactive); GI50 (OVCAR-4): > 100 µM (inactive); GI50 (OVCAR-5): 34.7 µM (inactive); GI50 (OVCAR-8): > 100 µM (inactive); GI50 (PC-3): 86.1 µM (inactive); GI50 (RPMI-8226): 48.4 µM (inactive); GI50 (RXF 393): > 100 µM (inactive); GI50 (SF-268): > 100 µM (inactive); GI50 (SF-295): 51.5 µM (inactive); GI50 (SF-539): > 100 µM (inactive); GI50 (SK-MEL-28): > 100 µM (inactive); GI50 (SK-MEL-2): > 100 µM (inactive); GI50 (SK-MEL-5): 25.4 µM (inactive); GI50 (SK-OV-3): 27.9 µM (inactive); GI50 (SN12C): 73.6 µM (inactive); GI50 (SNB-19): > 100 µM (inactive); GI50 (SNB-75): 44.8 µM (inactive); GI50 (SR): 69.3 µM (inactive); GI50 (SW-620): > 100 µM (inactive); GI50 (T47D): 54.5 µM (inactive); GI50 (TK-10): > 100 µM (inactive); GI50 (U-251): 86.3 µM (inactive); GI50 (UACC-257): > 100 µM (inactive); GI50 (UACC-62): > 100 µM (inactive); GI50 (UO-31): 43.9 µM (inactive)

Q: What does the source list for `COc1cc2c(cc1OC)OC(c1c(OC)ccc(OC)c1O)CC2` (configuration not stated)?
A: GI50 (786-0): > 100 µM (inactive); GI50 (A498): > 100 µM (inactive); GI50 (A549): > 100 µM (inactive); GI50 (ACHN): 68.7 µM (inactive); GI50 (BT-549): > 100 µM (inactive); GI50 (CAKI-1): > 100 µM (inactive); GI50 (CCRF-CEM): 22.9 µM (inactive); GI50 (COLO 205): 91.4 µM (inactive); GI50 (DU-145): > 100 µM (inactive); GI50 (EKVX): > 100 µM (inactive); GI50 (HCC 2998): > 100 µM (inactive); GI50 (HCT-116): > 100 µM (inactive); GI50 (HCT-15): > 100 µM; GI50 (HL-60): 20.4 µM (inactive); GI50 (HOP-62): > 100 µM (inactive); GI50 (HOP-92): > 100 µM (inactive); GI50 (HT-29): > 100 µM (inactive); GI50 (Hs-578T): 53.8 µM (inactive); GI50 (IGROV-1): > 100 µM (inactive); GI50 (K562): > 100 µM (inactive); GI50 (KM12): > 100 µM (inactive); GI50 (LOX IMVI): > 100 µM (inactive); GI50 (M14): > 100 µM (inactive); GI50 (MCF7): 78.2 µM (inactive); GI50 (MDA-MB-231): > 100 µM (inactive); GI50 (MDA-MB-435): > 100 µM (inactive); GI50 (MOLT-4): 71.9 µM (inactive); GI50 (Malme-3M): 74 µM (inactive); GI50 (NCI-H226): > 100 µM (inactive); GI50 (NCI-H23): > 100 µM (inactive); GI50 (NCI-H460): > 100 µM (inactive); GI50 (NCI/ADR-RES): > 100 µM (inactive); GI50 (OVCAR-3): 35.1 µM (inactive); GI50 (OVCAR-4): 87.3 µM (inactive); GI50 (OVCAR-5): > 100 µM (inactive); GI50 (OVCAR-8): > 100 µM (inactive); GI50 (PC-3): > 100 µM (inactive); GI50 (RPMI-8226): 37.2 µM (inactive); GI50 (RXF 393): > 100 µM (inactive); GI50 (SF-268): > 100 µM (inactive); GI50 (SF-295): 71.3 µM (inactive); GI50 (SF-539): 73.6 µM (inactive); GI50 (SK-MEL-28): > 100 µM (inactive); GI50 (SK-MEL-2): > 100 µM (inactive); GI50 (SK-MEL-5): 76.2 µM (inactive); GI50 (SK-OV-3): > 100 µM (inactive); GI50 (SNB-19): > 100 µM (inactive); GI50 (SNB-75): > 100 µM (inactive); GI50 (SR): > 100 µM (inactive); GI50 (SW-620): > 100 µM (inactive); GI50 (T47D): 65.8 µM (inactive); GI50 (TK-10): 95.3 µM (inactive); GI50 (U-251): > 100 µM (inactive); GI50 (UACC-257): > 100 µM (inactive); GI50 (UACC-62): > 100 µM (inactive); GI50 (UO-31): > 100 µM (inactive)
